Source: US6869977B1, “Skin moisturization compound” (Colonial Chemical Inc., priority 2004, dated 2005)

System: skin
Conditions: for Rating: 5% sample applied to skin, scale of 1 to 5, 1 being poor and 5 being best
Text: The effect of moisturization can be measured by the appearance of the skin when treated. Untreated skin that is in need of moisturization is rough, scaly and dry looking under the dissection microscope. The application of the moisturization solution to the skin and its effect upon minimizing roughness, scaling and dry appearance is a good measure of moisturization. We performed such an evaluation and rated the performance of a scale of 1 to 5.1 being poor and 5 being best.

C[N+](C)(C)CCO [Choline]
Rating: 4

C[N+](C)(CCO)CC(O)CO.[Cl-] (stereo not shown) [Example 3]
Rating: 5
moisturization effect in words (applied to rough dry skin): very effective moisturization agent

OCC(O)CO [Glycerin]
Rating: 2
